Measured values published in publication PMC11249646, “Small-Molecule Disruptors of the Interaction between Calcium- and Integrin-Binding Protein 1 and Integrin αIIbβ3 as Novel Antiplatelet Agents” (ACS Pharmacology & Translational Science, 2024).
≈ marks a conversion by molar mass, not a printed value. Read-outs that look alike come from different tables or passages of the source.

What was measured:
[1] = target: T1, CIB1 and αIIb interaction (GST-CIB1 : F-αIIb peptide) (Homo sapiens, UniProt Q99828); assay: FP assay, 384-well format (screen); format: binding
T1 construct: made in house; host or cells: BL-21 plus RIL cells (E. coli)
T1 sequence (Q99828 1-191): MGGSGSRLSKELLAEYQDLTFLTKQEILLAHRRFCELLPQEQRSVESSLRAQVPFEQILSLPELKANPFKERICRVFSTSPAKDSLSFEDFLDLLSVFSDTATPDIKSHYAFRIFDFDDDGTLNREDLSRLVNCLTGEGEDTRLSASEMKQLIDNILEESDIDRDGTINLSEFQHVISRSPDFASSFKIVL

[2] = target: T2, CIB1 and αIIb interaction (CIB1-GST : F-αIIb peptide) (Homo sapiens, UniProt Q99828); assay: FP assay, 1536-well qHTS format (primary and confirmatory screen); format: binding
T2 construct: made in house; host or cells: BL-21 plus RIL cells (E. coli)
T2 sequence (Q99828 1-191): T1 sequence (Q99828 1-191)

[3] = target: T3, GST-CIB1 : F-scrambled peptide (Homo sapiens, UniProt Q99828); assay: FP scrambled-peptide counter screen, 1536-well format; format: binding
T3 construct: made in house; host or cells: BL-21 plus RIL cells (E. coli)
T3 sequence (Q99828 1-191): T1 sequence (Q99828 1-191)

washed human platelets = assay: Human platelet aggregation assay (thrombin-induced); format: cell-based; conditions: for inhibition at 10 µM: Homo sapiens, Platelet, single concentration of 10 μM (n = 3), thrombin; for Thrombin Assay 10 µM (%): platelet aggregation inhibition at 10 µM
Source text: A classical challenge in target-based drug discovery is moving from biochemical to cellular assay and the essential step of determining if the compounds of interest can perform in a cellular context. After characterization of the compounds in a series of biochemical assay formats, our next step was to assess their activity in a cellular environment. Our previous studies have shown that the interaction of the cytoplasmic domain of integrin αIIbβ3, a key regulator of platelet aggregation, with CIB1, is involved in downstream signaling in platelet activation and aggregation. We sought to determine whether our candidate compounds were inhibiting this interaction by evaluating them for platelet function in a human platelet aggregation assay. We prepared platelet-rich plasma (PRP) and washed the platelets as previously described[44] and then performed a platelet aggregation assay using the washed platelet suspensions (2 × 10^8/platelets/mL) followed by the recording of aggregation traces (see Materials and Methods Section). To induce platelet aggregation, 0.03 U/mL of thrombin, a physiological agonist of platelet activation, was used.
Figure 6 Effect of compounds on human platelet activation. Representative platelet aggregation tracings of washed human platelet suspensions pretreated for 30 min at 37 °C with vehicle (DMSO) or compounds at indicated concentrations followed by activation with thrombin (0.03–0.1 U/mL). Panel (A): NCGC00071855. Panel (B–D): NCGC00351170. Panel (E): CD62P exposure was in the presence of NCGC00351170. Data represents mean ± SEM, n = 4 individual experiments; ns = non significant *P < 0.05, ***P < 0.001, ****P < 0.0001.
Whole blood was drawn by venipuncture from healthy adult volunteers (of both gender and race) with informed consent. Approval was obtained from the institutional review boards of Thomas Jefferson University, according to the Declaration of Helsinki. Blood was collected in acidified citrate dextrose as an anticoagulant. Platelet-rich plasma (PRP) and washed platelets were prepared, as previously described.[44] Platelet aggregation was performed using washed platelet suspensions containing 2 × 10^8 platelets/mL using a Chrono-Log Lumi-Aggregometer (Chrono-Log), as described previously.[11] Aggregation traces were recorded by using Aggrolink software (Chrono-Log). Thrombin-induced P-selectin (CD62P) exposure was performed using Accuri C6 flowcytometer (BD Bioscience) as described previously.[11]
Figure S9: Effect of compounds on human platelet activation. Representative platelet aggregation
tracings of washed human platelet suspensions treated with vehicle (DMSO) or indicated
compounds at 10 μM for 30 minutes at 37 °C followed by activation with thrombin (0.03U/mL).

[4] = In vitro ADME: solubility; format: physicochemical; conditions: read-out: Solubility
[5] = target: T3, GST-CIB1 : F-scrambled peptide; assay: FP scrambled-peptide counter screen, 384-well format; format: binding; conditions: for IC50: read-out: 384-well COUNTERSCREEN IC50
[6] = target: T4, GST-CIB1:F-αIIb interaction (Homo sapiens, UniProt Q99828); assay: Gel-based (in-gel) binding assay
T4 construct: made in house; host or cells: BL-21 plus RIL cells (E. coli)
T4 sequence (Q99828 1-191): T1 sequence (Q99828 1-191)

[7] = target: T5, GST-CIB1 : F-αIIb peptide (Homo sapiens, UniProt Q99828); assay: FP assay in the presence of glutathione (GSH), thiol reactivity; format: binding
T5 construct: made in house; host or cells: BL-21 plus RIL cells (E. coli)
T5 sequence (Q99828 1-191): T1 sequence (Q99828 1-191)

[8] = In vitro ADME: PAMPA permeability
[9] = 384-well FP assay, Table 1, read-out: FP assay IC50
[10] = confirmatory screen, qHTS curve class, negative sign = inhibitory curve
[11] = confirmatory screen, YES/NO call
[12] = confirmatory screen, negative = inhibition
[13] = confirmatory screen, read-out: CONFIRMATORY SCREEN IC50
[14] = qHTS primary screen hits, Table S2, negative = inhibition
[15] = qHTS primary screen hits, Table S2, negative sign = inhibitory curve, several classes where COUNT > 1
[16] = qHTS primary screen hits, Table S2, read-out: IC50
[17] = scrambled-peptide counterscreen
[18] = scrambled-peptide counterscreen, YES/NO call
[19] = scrambled-peptide counterscreen, qHTS curve class

Compound: Cc1ccc(C(=O)c2no[n+]([O-])c2C(=O)c2ccc(C)cc2)cc1.O=C(O)C(F)(F)F [NCGC00351163-01]
- IC50 [1, 9]: 6.68 µM
- Efficacy (%) (confirmatory screen) ([2]; confirmatory screen): -51%
- Confirm? (confirmatory screen) ([2]; confirmatory screen, YES/NO): YES
- Curve Class (confirmatory screen) [2, 10]: -1.4
- IC50 ([2]; confirmatory screen, read-out: IC50 [μM] (confirmatory screen)): 5.6 µM
- Efficacy (%) ([2]; qHTS FP screen hits, Table S2, negative = inhibition): -47%
- Curve Class ([2]; qHTS FP screen hits, Table S2, one class per curve where COUNT > 1, negative sign = inhibitory curve): -1.2
- IC50 ([2]; qHTS FP screen hits, Table S2, read-out: IC50): 11.2 µM
- Efficacy (%) (counterscreen) ([3]; counterscreen): -36%
- Curve Class (counterscreen) ([3]; counterscreen, qHTS curve class, negative sign = inhibitory curve): -1.2
- IC50 ([3]; counterscreen, read-out: IC50 [μM] (counterscreen)): 4 µM
- inhibition at 10 µM (washed human platelets): 96%
- Thrombin Assay 10 µM (%) (washed human platelets): 96%
- solubility [4]: 12 µg/mL

Compound: S=C(SSC(=S)N1CCCCC1)N1CCCCC1 [NCGC00181776-02, dipentamethylenethiuram disulfide]
- 384-well SCREEN Efficacy (%) ([1]; F-αIIb peptide): 80%
- 384-well SCREEN Confirm? ([1]; F-αIIb peptide, YES/NO): YES
- IC50 ([1]; F-αIIb peptide, read-out: 384-well SCREEN IC50): 6.3 µM
- 384-well COUNTERSCREEN Efficacy (%) ([5]; F-scrambled peptide): 38%
- 384-well COUNTERSCREEN Confirm? ([5]; F-scrambled peptide, *: Curve in opposite direction): YES
- IC50 ([5]; F-scrambled peptide): > 120 µM
- CONFIRMATORY SCREEN Confirm? [2, 11]: YES
- CONFIRMATORY SCREEN Curve Class [2, 10]: -1.4
- CONFIRMATORY SCREEN Efficacy (%) [2, 12]: -72%
- IC50 [2, 13]: 25.1 µM
- Efficacy (%) [2, 14]: -64%
- Curve Class [2, 15]: -1.2
- IC50 [2, 16]: 28.2 µM
- COUNTERSCREEN Efficacy (%) [3, 17]: 0%
- COUNTERSCREEN Confirm? [3, 18]: YES
- COUNTERSCREEN Curve Class [3, 19]: 4
- Active in Gel Assay? ([6]; 1 μM GST-CIB1, 400 nM F-αIIb, 60 μM, 1:2, 4-points): YES
- Inhibited concentration in gel (µM) ([6]; 1 μM GST-CIB1, 400 nM F-αIIb, concentrations tested 60, 30, 15, 7.5): 60,30 µM
- shift in potency in the presence of GSH ([7]; with vs without 10 μM reduced GSH): right-shift in potency

Compound: O=C(O)C(F)(F)F.O=C(c1cccs1)c1no[n+]([O-])c1C(=O)c1cccs1 [NCGC00071855-05]
- Efficacy (%) [2, 14]: -48%
- Curve Class [2, 15]: -1.2
- IC50 [2, 16]: 11.6 µM
- solubility [4]: 18 µg/mL
- Papp [8]: 187 ×10⁻⁶ cm/s

Compound: Cc1ccccc1C(=O)c1no[n+]([O-])c1C(=O)c1ccccc1C.O=C(O)C(F)(F)F [NCGC00351166-01]
- IC50 [1, 9]: 4.26 µM
- CONFIRMATORY SCREEN Confirm? [2, 11]: YES
- CONFIRMATORY SCREEN Curve Class [2, 10]: -1.4
- CONFIRMATORY SCREEN Efficacy (%) [2, 12]: -39%
- IC50 [2, 13]: 12.6 µM
- Efficacy (%) [2, 14]: -19%
- Curve Class [2, 15]: -2.4
- IC50 [2, 16]: 31.6 µM
- COUNTERSCREEN Efficacy (%) [3, 17]: -24%
- COUNTERSCREEN Confirm? [3, 18]: YES
- COUNTERSCREEN Curve Class [3, 19]: 4
- inhibition at 10 µM (washed human platelets): 77%
- Thrombin Assay 10 µM (%) (washed human platelets): 77%
- solubility [4]: 2 µg/mL
- Papp [8]: < 1 ×10⁻⁶ cm/s

Compound: O=C(c1ccc(F)cc1)c1no[n+]([O-])c1C(=O)c1ccc(F)cc1 [NCGC00351162-02]
- IC50 [1, 9]: 7.5 µM
- IC50 ([1]; log of IC50 in M (negative values), 384-well FP assay, read-out: FP Assay LOG IC50 (converted)): 7.41 µM
- Efficacy (%) [2, 14]: -58%
- IC50 [2, 16]: 26.6 µM
- inhibition at 10 µM (washed human platelets): 97%
- Thrombin Assay 10 µM (%) (washed human platelets): 97%
- solubility [4]: 34 µg/mL (≈ 103 µM)

Compound: thimerosal [NCGC00178879-04, reference compound]
- 384-well SCREEN Confirm? [1]: YES
- 384-well SCREEN Efficacy (%) [1]: 77%
- IC50 ([1]; read-out: 384-well SCREEN IC50): 2.8 µM
- 384-well COUNTERSCREEN Confirm? [5]: YES
- 384-well COUNTERSCREEN Efficacy (%) [5]: 45%
- IC50 [5]: 7.1 µM
- CONFIRMATORY SCREEN Confirm? [2]: YES
- CONFIRMATORY SCREEN Curve Class [2]: -1.2
- CONFIRMATORY SCREEN Efficacy (%) [2]: -53%
- Curve Class [2]: -1.2
- Efficacy (%) [2]: -74%
- IC50 ([2]; read-out: CONFIRMATORY SCREEN IC50): 17.8 µM
- IC50 ([2]; read-out: IC50): 22.4 µM
- COUNTERSCREEN Confirm? [3]: YES
- COUNTERSCREEN Curve Class [3]: 3
- COUNTERSCREEN Efficacy (%) [3]: 150%
- Active in Gel Assay? [6]: YES
- IC50 ([7]; read-out: GSH (+) Assay IC50): 35.6 µM
- IC50 ([7]; read-out: GSH (-) Assay IC50): 0.316 µM

Compound: O=C(c1cccc(OCc2ccccc2)c1)c1no[n+]([O-])c1C(=O)c1cccc(OCc2ccccc2)c1 [NCGC00351160-01]
- IC50 [1, 9]: 20.7 µM
- inhibition at 10 µM (washed human platelets): 49%
- Thrombin Assay 10 µM (%) (washed human platelets): 49%
- solubility [4]: 5 µg/mL (≈ 9.87 µM)
- Papp [8]: 5.74 ×10⁻⁶ cm/s
